According to PMC10743905, “Design, Synthesis, and In Vitro and In Vivo Bioactivity Studies of Hydrazide–Hydrazones of 2,4-Dihydroxybenzoic Acid” (International Journal of Molecular Sciences, 2023):
Converted amounts (≈) assume the structure as drawn. Where two headings read alike, the source gives them in different places. Each block holds one molecule with its values, some of them ahead of it.

Tests used:
Format in all cases: cell-based
[1] = system: Micrococcus luteus ATCC 10240; experiment: Broth microdilution MIC/MBC
Excerpt: (§1) In vitro antimicrobial activity assays - Methodology
(§2) The examined compounds 1 - 24 were screened in vitro for antibacterial and antifungal activities using the broth microdilution method according to procedure reported earlier by our research group and European Committee on Antimicrobial Susceptibility Testing (EUCAST) and Clinical and Laboratory Standards Institute (CLSI) guidelines against a panel of reference and clinical or saprophytic strains of microorganisms, in-cluding Gram-positive bacteria, Staphylococcus aureus ATCC 43300 (Methicillin Resistant S. aureus – MRSA), Staphylococcus aureus ATCC 29213 (Methicillin Susceptible S. aureus – MSSA), Staphylococcus epidermidis ATCC 12228, Enterococcus faecalis ATCC 29212, Micro-coccus luteus ATCC 10240, Bacillus subtilis ATCC 6633 and Bacillus cereus ATCC 10876), Gram-negative bacteria (Bordetella bronchiseptica ATCC 4617, Escherichia coli ATCC 25922, Klebsiella pneumoniae ATCC 13883, Proteus mirabilis ATCC 12453, Salmonella typhimurium ATCC 14028 and Pseudomonas aeruginosa ATCC 9027) and fungi belonging to yeasts (Can-dida albicans ATCC 10231, Candida albicans ATCC 2091, Candida parapsilosis ATCC 22019, Candida glabrata ATCC 90030 and Candida krusei ATCC 14243). The microorganisms be-longing to ATCC came from American Type Culture Collection, routinely used for the evaluation of antimicrobials. […]
(§3) Samples containing examined compounds were dissolved in dimethyl sulfoxide (DMSO). […]
(§4) Subsequently, the MIC (Minimal Inhibitory Concentration) of the compounds was ex-amined by the microdilution broth method, using their two-fold dilutions in Mueller- […]
(§5) Hinton broth or (for bacteria) and RPMI 1640 broth with MOPS (for fungi) prepared in 96-well polystyrene plates. Final concentrations of the compounds ranged from 1000 to 0.488 µg/ml. Microbial suspensions were prepared in 0.85% NaCl with an optical density of 0.5 McFarland standard. Next each bacterial or fungal suspension was added per each well containing broth and various concentrations of the examined compounds. After incuba-

[2] = system: Proteus mirabilis ATCC 12453; experiment: Broth microdilution MIC/MBC; conditions: ATCC12453
Excerpt: as §1, §2, §3, §4, §5

[3] = system: Salmonella typhimurium ATCC 14028; experiment: Broth microdilution MIC/MBC; conditions: Salmonella enterica
Excerpt: as §1, §2, §3, §4, §5

[4] = system: Staphylococcus aureus ATCC 43300; experiment: Broth microdilution MIC/MBC; conditions: Staphylococcus aureus ATCC 43300 (MRSA)
Excerpt: as §1, §2, §3, §4, §5

[5] = system: Staphylococcus epidermidis ATCC 12228; experiment: Broth microdilution MIC/MBC
Excerpt: as §1, §2, §3, §4, §5

[6] = system: Bacillus subtilis ATCC 6633; experiment: Broth microdilution MIC/MBC
Excerpt: Detailed procedures are presented in the Supplementary Materials. […]
as §1
as §2, with “antimicrobials. All the used microbial cultures were first subcultured on nu-trient agar or Sabouraud agar at 35°C for 18-24 h or 30°C for 24-48 h for bacteria and fungi,” for “antimicrobials.”
(§6) The surface of Mueller-Hinton agar (for bacteria) and RPMI 1640 with MOPS (for fungi) were inoculated with the suspensions of bacterial or fungal species. Microbial suspensions were prepared in sterile saline with an optical density of McFarland standard scale 0.5.
(§7) Samples containing examined compounds were dissolved in dimethyl sulfoxide (DMSO).
(§8) Furthermore, bacterial and fungal suspensions were put onto Petri dishes with solid me-dia containing 2 mg/mL of the tested compounds followed incubation at 37°C for 24h and 30°C for 48h for bacteria and fungi, respectively. The inhibition of microbial growth was judged by comparison with a control culture prepared without any sample tested. Ciprof-loxacin, vancomycin, nitrofurantoin, cefuroxime, ampicillin or nystatin (Sigma) were used as a reference antibacterial or antifungal compounds, respectively.
as §4, §5

[7] = system: Bacillus cereus ATCC 10876; experiment: Broth microdilution MIC/MBC
Excerpt: as §1
as §2, with “antimicrobials. All the used microbial cultures were first subcultured on nu-trient agar or Sabouraud agar at 35°C for 18-24 h or 30°C for 24-48 h for bacteria and fungi,” for “antimicrobials.”
as §6, §7, §8, §4, §5

[8] = system: Bordetella bronchiseptica ATCC 4617; experiment: Broth microdilution MIC/MBC; conditions: ATCC4617
Excerpt: as §1
as §2, with “antimicrobials. All the used microbial cultures were first subcultured on nu-trient agar or Sabouraud agar at 35°C for 18-24 h or 30°C for 24-48 h for bacteria and fungi,” for “antimicrobials.”
as §6, §7, §8, §4, §5

[9] = system: Escherichia coli ATCC 25922; experiment: Broth microdilution MIC/MBC; conditions: ATCC25922
Excerpt: as §1
as §2, with “antimicrobials. All the used microbial cultures were first subcultured on nu-trient agar or Sabouraud agar at 35°C for 18-24 h or 30°C for 24-48 h for bacteria and fungi,” for “antimicrobials.”
as §6, §7, §8, §4, §5

[10] = system: Klebsiella pneumoniae ATCC 13883; experiment: Broth microdilution MIC/MBC; conditions: ATCC13883
Excerpt: as §1
as §2, with “antimicrobials. All the used microbial cultures were first subcultured on nu-trient agar or Sabouraud agar at 35°C for 18-24 h or 30°C for 24-48 h for bacteria and fungi,” for “antimicrobials.”
as §6, §7, §8, §4, §5

[11] = system: Candida albicans ATCC 10231; experiment: Broth microdilution MIC/MFC
Excerpt: as §1
as §2, with “antimicrobials. All the used microbial cultures were first subcultured on nu-trient agar or Sabouraud agar at 35°C for 18-24 h or 30°C for 24-48 h for bacteria and fungi,” for “antimicrobials.”
as §6, §7, §8, §4, §5

[12] = system: Candida albicans ATCC 2091; experiment: Broth microdilution MIC/MFC
Excerpt: as §1
as §2, with “antimicrobials. All the used microbial cultures were first subcultured on nu-trient agar or Sabouraud agar at 35°C for 18-24 h or 30°C for 24-48 h for bacteria and fungi,” for “antimicrobials.”
as §6, §7, §8, §4, §5

[13] = system: Candida glabrata ATCC 90030; experiment: Broth microdilution MIC/MFC
Excerpt: as §1
as §2, with “antimicrobials. All the used microbial cultures were first subcultured on nu-trient agar or Sabouraud agar at 35°C for 18-24 h or 30°C for 24-48 h for bacteria and fungi,” for “antimicrobials.”
as §6, §7, §8, §4, §5

[14] = system: Candida krusei ATCC 14243; experiment: Broth microdilution MIC/MFC
Excerpt: as §1
as §2, with “antimicrobials. All the used microbial cultures were first subcultured on nu-trient agar or Sabouraud agar at 35°C for 18-24 h or 30°C for 24-48 h for bacteria and fungi,” for “antimicrobials.”
as §6, §7, §8, §4, §5

[15] = system: Candida parapsilosis ATCC 22019; experiment: Broth microdilution MIC/MFC
Excerpt: as §1
as §2, with “antimicrobials. All the used microbial cultures were first subcultured on nu-trient agar or Sabouraud agar at 35°C for 18-24 h or 30°C for 24-48 h for bacteria and fungi,” for “antimicrobials.”
as §6, §7, §8, §4, §5

[16] = system: Enterococcus faecalis ATCC 29212; experiment: Broth microdilution MIC/MBC
Excerpt: as §1
as §2, with “antimicrobials. All the used microbial cultures were first subcultured on nu-trient agar or Sabouraud agar at 35°C for 18-24 h or 30°C for 24-48 h for bacteria and fungi,” for “antimicrobials.”
as §6, §7, §8, §4, §5

- MIC [1]: 62.5 µg/mL (≈ 262 µM)
- MIC ([1]; ATCC10240, read-out: MIC): 62.5 µg/mL (≈ 262 µM)
- MIC [2]: 62.5 µg/mL (≈ 262 µM)
- MIC [3]: 31.2 µg/mL (≈ 131 µM)
- MIC [4]: 7.81 µg/mL (≈ 32.8 µM)
- MIC [5]: 3.91 µg/mL (≈ 16.4 µM)
- MIC ([5]; ATCC12228, read-out: MIC): 3.91 µg/mL (≈ 16.4 µM)
- MIC [6]: 3.91 µg/mL (≈ 16.4 µM)
- MIC ([6]; ATCC6633, read-out: MIC): 3.91 µg/mL (≈ 16.4 µM)
- MIC [7]: 7.81 µg/mL (≈ 32.8 µM)
- MIC ([7]; ATCC10876, read-out: MIC): 7.81 µg/mL (≈ 32.8 µM)
- MIC [8]: 125 µg/mL (≈ 525 µM)
- MIC [9]: 7.81 µg/mL (≈ 32.8 µM)
- MIC [10]: 15.6 µg/mL (≈ 65.6 µM)
Compound: O=C1CN(/N=C/c2ccc([N+](=O)[O-])o2)C(=O)N1 [NIT, nitrofurantoin, reference compound]
- MBC ([1]; ATCC10240): 62.5 µg/mL (≈ 262 µM)
- MBC [2]: 125 µg/mL (≈ 525 µM)
- MBC [3]: 62.5 µg/mL (≈ 262 µM)
- MBC [4]: 15.6 µg/mL (≈ 65.6 µM)
- MBC ([5]; ATCC12228): 7.81 µg/mL (≈ 32.8 µM)
- MBC ([6]; ATCC6633): 3.91 µg/mL (≈ 16.4 µM)
- MBC ([7]; ATCC10876): 15.6 µg/mL (≈ 65.6 µM)
- MBC [8]: > 1000 µg/mL
- MBC [9]: 15.6 µg/mL (≈ 65.6 µM)
- MBC [10]: 31.2 µg/mL (≈ 131 µM)

Compound: C[C@@H]1[C@H](O)[C@@H](C)/C=C/C=C/CC/C=C/C=C/C=C/C=C/C(O[C@H]2O[C@H](C)[C@@H](O)[C@H](N)[C@@H]2O)CC2O[C@](O)(CC(O)C(O)CCC(O)CC(O)CC(O)CC(=O)O[C@H]1C)CC(O)C2C(=O)O (stereo partly drawn) [NY, nystatin, reference compound]
- MFC [11]: 0.48 µg/mL (≈ 0.518 µM)
- MFC/MIC [11]: 1
- MIC [11]: 0.48 µg/mL (≈ 0.518 µM)
- MFC [12]: 0.24 µg/mL (≈ 0.259 µM)
- MFC/MIC [12]: 1
- MIC [12]: 0.24 µg/mL (≈ 0.259 µM)
- MFC [13]: 0.48 µg/mL (≈ 0.518 µM)
- MFC/MIC [13]: 2
- MIC [13]: 0.24 µg/mL (≈ 0.259 µM)
- MFC [14]: 0.24 µg/mL (≈ 0.259 µM)
- MFC/MIC [14]: 1
- MIC [14]: 0.24 µg/mL (≈ 0.259 µM)
- MFC [15]: 0.48 µg/mL (≈ 0.518 µM)
- MFC/MIC [15]: 2
- MIC [15]: 0.24 µg/mL (≈ 0.259 µM)

Compound: CN[C@H](CC(C)C)C(=O)N[C@H]1C(=O)N[C@@H](CC(N)=O)C(=O)N[C@H]2C(=O)N[C@H]3C(=O)N[C@H](C(=O)N[C@H](C(=O)O)c4cc(O)cc(O)c4-c4cc3ccc4O)[C@H](O)c3ccc(c(Cl)c3)Oc3cc2cc(c3O[C@@H]2O[C@H](CO)[C@@H](O)[C@H](O)[C@H]2O[C@H]2C[C@](C)(N)[C@H](O)[C@H](C)O2)Oc2ccc(cc2Cl)[C@H]1O [VA, vancomycin, reference compound]
- MBC [16]: 1.95 µg/mL (≈ 1.35 µM)
- MBC/MIC [16]: 2
- MIC [16]: 0.98 µg/mL (≈ 0.676 µM)
